Test results from PubChem BioAssay (NCI).
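1) Cells in 96-well plates. 2) Compound, 48 h, 5 concentrations. 3) Linear interpolation between surrounding doses. 4) Unreached endpoint = highest concentration. TGI: total growth inhibition.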

How the values were obtained:
Experiment in all cases: NCI-60 cell line screen, 48 h
[1] = system: BT-549 breast
[2] = system: U251 CNS
[3] = system: ACHN renal
[4] = system: MDA-MB-435
[5] = system: SF-268 CNS
[6] = system: HCT-116 colon
[7] = system: UACC-62 melanoma
[8] = system: MALME-3M melanoma
[9] = system: PC-3 prostate
[10] = system: SK-MEL-2 melanoma
[11] = system: T-47D breast
[12] = system: TK-10 renal
[13] = system: UO-31 renal
[14] = system: SNB-19 CNS
[15] = system: SW-620 colon
[16] = system: KM12 colon
[17] = system: UACC-257 melanoma
[18] = system: NCI/ADR-RES ovarian
[19] = system: HS 578T breast
[20] = system: SNB-75 CNS
[21] = system: NCI-H460 lung
[22] = system: CAKI-1 renal
[23] = system: EKVX NSCLC
[24] = system: NCI-H226 lung
[25] = system: NCI-H23 lung
[26] = system: HOP-92 NSCLC
[27] = system: 786-0 renal
[28] = system: RXF 393 renal
[29] = system: HCT-15 colon
[30] = system: SF-539 CNS
[31] = system: OVCAR-3 ovarian
[32] = system: SK-OV-3 ovarian
[33] = system: HCC-2998 colon
[34] = system: OVCAR-8 ovarian
[35] = system: SK-MEL-5 melanoma
[36] = system: LOX IMVI melanoma
[37] = system: SN12C renal
[38] = system: OVCAR-4 ovarian
[39] = system: M14 melanoma
[40] = system: HT29 colon
[41] = system: NCI-H522 lung
[42] = system: MDA-N
[43] = system: K-562 leukemia
[44] = system: COLO 205 colon
[45] = system: SF-295 CNS
[46] = system: HOP-62 NSCLC
[47] = system: RPMI-8226 leukemia
[48] = system: CCRF-CEM leukemia
[49] = system: OVCAR-5 ovarian
[50] = system: HL-60(TB) leukemia
[51] = system: IGROV1 ovarian
[52] = system: MDA-MB-231 breast
[53] = system: DU-145 prostate
[54] = system: A549 NSCLC
[55] = system: SK-MEL-28 melanoma
[56] = system: MCF7 breast
[57] = system: A498 renal

`COC(=O)[C@]1(C)CCC[C@]2(C)[C@H]3CC[C@]4(C(C)C)OO[C@@H](O4)[C@]34O[C@@H]4C[C@H]21` gave a TGI [1] of 10.9 µM, a TGI [2] of 13.5 µM and a TGI [3] of 1.75 µM. It also gave a TGI [4] of 3.89 µM, a TGI [5] of 5.31 µM and a TGI [6] of 3.03 µM. It also gave a TGI [7] of 17.7 µM, a TGI [8] of 20.5 µM and a TGI [9] of 3.11 µM. For the same compound, the TGI [10] was 29.1 µM, the TGI [11] was 3.84 µM and the TGI [12] was 12.2 µM. For the same compound, the TGI [13] was 1.46 µM, the TGI [14] was 24.5 µM and the TGI [15] was over 33.7 µM. It also gave a TGI [16] of 11.2 µM, a TGI [17] of 32.1 µM and a TGI [18] of 30.9 µM. It also gave a TGI [19] of 8.65 µM, a TGI [20] of 11.2 µM and a TGI [21] of 3.88 µM. It also gave a TGI [22] of 0.927 µM, a TGI [23] of 3.71 µM and a TGI [24] of 13.5 µM. The TGI [25] was 23.5 µM, the TGI [26] was 4.14 µM and the TGI [27] was 3.49 µM. It also gave a TGI [28] of 11.6 µM, a TGI [29] of 7.06 µM and a TGI [30] of over 55.6 µM. The TGI [31] was 3.65 µM, the TGI [32] was 4.83 µM and the TGI [33] was 4.88 µM. For the same compound, the TGI [34] was 26.5 µM, the TGI [35] was 8.02 µM and the TGI [36] was 1040 nM. For the same compound, the TGI [37] was 12 µM, the TGI [38] was 3.73 µM and the TGI [39] was 17.3 µM. The TGI [40] was 3.91 µM, the TGI [41] was 3.43 µM and the TGI [42] was 6.13 µM. It also gave a TGI [43] of over 100 µM, a TGI [44] of 5.2 µM and a TGI [45] of 8.77 µM. The TGI [46] was 7 µM, the TGI [47] was over 100 µM and the TGI [48] was over 100 µM. For the same compound, the TGI [49] was 16.3 µM, the TGI [50] was 4.88 µM and the TGI [51] was 0.336 µM. For the same compound, the TGI [52] was 15 µM, the TGI [53] was 3.07 µM and the TGI [54] was 3.56 µM. The TGI [55] was over 63.9 µM and the TGI [56] was 5.75 µM.
In the case of `CC(=O)O[C@H](C[C@@H](C)[C@H]1C(=O)[C@H](O)[C@@]2(C)C3CC[C@H]4C(C)(C)[C@@H](OC5OCC(O)C(O)C5O)CC[C@@]45C[C@@]35CC[C@]12C)[C@@H]1OC1(C)C` (stereo partly drawn), the TGI [1] was 51.4 µM, the TGI [2] was 29.9 µM and the TGI [57] was 29.3 µM. The TGI [3] was 29.4 µM, the TGI [4] was 36.2 µM and the TGI [5] was 46.7 µM. For the same compound, the TGI [6] was 38 µM, the TGI [7] was 27 µM and the TGI [8] was 32.4 µM. It also gave a TGI [9] of 30.4 µM, a TGI [10] of 29.5 µM and a TGI [11] of 63.6 µM. For the same compound, the TGI [12] was 29.8 µM, the TGI [13] was 54.7 µM and the TGI [14] was 65.4 µM. The TGI [15] was over 100 µM, the TGI [16] was 53.8 µM and the TGI [17] was 34.8 µM. The TGI [18] was over 100 µM, the TGI [19] was over 100 µM and the TGI [20] was 26.1 µM. It also gave a TGI [21] of 30.6 µM, a TGI [22] of 33.3 µM and a TGI [23] of 44.3 µM. The TGI [24] was 33.2 µM, the TGI [25] was 55.4 µM and the TGI [26] was 30.6 µM. For the same compound, the TGI [27] was 30.2 µM, the TGI [28] was 34.1 µM and the TGI [29] was 55.4 µM. The TGI [30] was 29.8 µM, the TGI [31] was 7.18 µM and the TGI [32] was 26.4 µM. It also gave a TGI [33] of 29.8 µM, a TGI [34] of 41.3 µM and a TGI [35] of 29.7 µM. It also gave a TGI [36] of over 100000 nM, a TGI [37] of 35.7 µM and a TGI [38] of 64.5 µM. It also gave a TGI [39] of 94.5 µM, a TGI [40] of over 100 µM and a TGI [41] of 33.8 µM. It also gave a TGI [42] of 40.2 µM, a TGI [43] of 15.3 µM and a TGI [44] of 61.3 µM. For the same compound, the TGI [45] was 33.6 µM, the TGI [46] was 31.1 µM and the TGI [47] was 26.4 µM. For the same compound, the TGI [48] was over 100 µM, the TGI [49] was 32 µM and the TGI [50] was 22.6 µM. It also gave a TGI [51] of 29.7 µM, a TGI [52] of 34.7 µM and a TGI [53] of 37.7 µM. It also gave a TGI [54] of over 100 µM, a TGI [55] of 44.7 µM and a TGI [56] of 34.8 µM.
